The source of these data is the supplement of paper PMC11061612.

Assay [1] deals with NCI-H1781 (Lung Adenocarcinoma). Nature of the assay: combination Emax (second highest fraction inhibited in the dose matrix, 72 h); higher = more inhibition; extreme values may be limits of the assay. Put shortly: (§1)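 After 24 hours at 37°C and 5% CO2 in 1536-well plates, cells in DMEM/F12 or RPMI plus 10% FBS received two-drug dose matrices for 72 hours. Viability came from CellTiter-Glo 2.0 luminescence and was scaled as inhibition, anchored at 0 by vehicle wells and at 1 by blank wells. Combination Emax is taken as the second-highest inhibition in the matrix, and Bliss excess as the observed combination effect less EA + EB − EA·EB, with EA and EB the single-agent effects.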

Assay [2] deals with SW756 (Cervical Carcinoma). Described as above. Put shortly:
as §1

For `Cc1c2c(nn1C)CSCc1cc(n(C)n1)CSc1cc(c3ccccc3c1)OCCCc1c(C(=O)O)n(C)c3c-2c(Cl)ccc13` [AZD5991] + C=CCn1c(=O)c2cnc(Nc3ccc(N4CCN(C)CC4)cc3)nc2n1-c1cccc(C(C)(C)O)n1 [AZD1775] (first compound max 1 µM, partner max 1 µM), the “combination Emax” value in assay [1] is 0.65; in assay [2] it was 0.427.
In the case of `CN(CCO)CC[C@H](CSc1ccccc1)Nc1ccc(S(=O)(=O)NC(=O)c2ccc(N3CCC([C@@H](O)c4ccccc4-c4ccc(Cl)cc4)CC3)cc2)cc1S(=O)(=O)C(F)(F)F` [AZD4320] + C[C@@H]1COCCN1C2=NC(=NC(=C2)C3(CC3)[S@](=N)(=O)C)C4=C5C=CNC5=NC=C4 [AZD6738] (first compound max 1 µM, 7x7, partner max 10 µM), the results for the “combination Emax” value in assay [1] and in assay [2] were 0.519 and 0.381, respectively.
Regarding `CC1(C)CCC(CN2CCN(c3ccc(C(=O)NS(=O)(=O)c4ccc(NCC5CCOCC5)c([N+](=O)[O-])c4)c(Oc4cnc5[nH]ccc5c4)c3)CC2)=C(c2ccc(Cl)cc2)C1` [Venetoclax] + C1CN(CCC1(C(=O)N[C@@H](CCO)C2=CC=C(C=C2)Cl)N)C3=NC=NC4=C3C=CN4 [Capivasertib] (first compound max 1 µM, 7x7, partner max 3 µM), the “combination Emax” value in assay [1] amounted to 0.5; in assay [2] it was 0.195.
Regarding `CN(CCO)CC[C@H](CSc1ccccc1)Nc1ccc(S(=O)(=O)NC(=O)c2ccc(N3CCC([C@@H](O)c4ccccc4-c4ccc(Cl)cc4)CC3)cc2)cc1S(=O)(=O)C(F)(F)F` [AZD4320] + CN(C)CCCOc1ccc(-c2ccc3ncc4c(c3c2)n(C2CCOCC2)c(=O)n4C)cn1 [AZD0156] (first compound max 1 µM, 7x7, partner max 1 µM), the “combination Emax” value in assay [1] came to 0.183; in assay [2], 0.133.
On to `Cc1c2c(nn1C)CSCc1cc(n(C)n1)CSc1cc(c3ccccc3c1)OCCCc1c(C(=O)O)n(C)c3c-2c(Cl)ccc13` [AZD5991] + CCN(CCO)CCCOc1ccc2c(Nc3cc(CC(=O)Nc4cccc(F)c4)[nH]n3)ncnc2c1 [AZD2811] (first compound max 1 µM, 7x7, partner max 1 µM), for which the “combination Emax” value in assay [1] came to 0.875; in assay [2], 0.204.
As to `Cc1c2c(nn1C)CSCc1cc(n(C)n1)CSc1cc(c3ccccc3c1)OCCCc1c(C(=O)O)n(C)c3c-2c(Cl)ccc13` [AZD5991] + CC1(C)CCC(CN2CCN(c3ccc(C(=O)NS(=O)(=O)c4ccc(NCC5CCOCC5)c([N+](=O)[O-])c4)c(Oc4cnc5[nH]ccc5c4)c3)CC2)=C(c2ccc(Cl)cc2)C1 [Venetoclax] (first compound max 1 µM, 7x7, partner max 1 µM), the “combination Emax” value in assay [1] was 0.432; in assay [2], 0.185.
In the same order, the values of `CN(CCO)CC[C@H](CSc1ccccc1)Nc1ccc(S(=O)(=O)NC(=O)c2ccc(N3CCC([C@@H](O)c4ccccc4-c4ccc(Cl)cc4)CC3)cc2)cc1S(=O)(=O)C(F)(F)F` [AZD4320] + C1CN(CCC1(C(=O)N[C@@H](CCO)C2=CC=C(C=C2)Cl)N)C3=NC=NC4=C3C=CN4 [Capivasertib] (first compound max 1 µM, 7x7, partner max 3 µM) are 0.341 and 0.143.
On to `CC1(C)CCC(CN2CCN(c3ccc(C(=O)NS(=O)(=O)c4ccc(NCC5CCOCC5)c([N+](=O)[O-])c4)c(Oc4cnc5[nH]ccc5c4)c3)CC2)=C(c2ccc(Cl)cc2)C1` [Venetoclax] + Cc1cc2ncnn2cc1Nc1ncc2c(n1)n(C1CCOCC1)c(=O)n2C [AZD7648] (first compound max 1 µM, 7x7, partner max 10 µM), for which the figures for the “combination Emax” value in assay [1] and in assay [2] were 0.329 and 0.195, respectively.
With `CN(CCO)CC[C@H](CSc1ccccc1)Nc1ccc(S(=O)(=O)NC(=O)c2ccc(N3CCC([C@@H](O)c4ccccc4-c4ccc(Cl)cc4)CC3)cc2)cc1S(=O)(=O)C(F)(F)F` [AZD4320] + Cc1cc2ncnn2cc1Nc1ncc2c(n1)n(C1CCOCC1)c(=O)n2C [AZD7648] (first compound max 1 µM, 7x7, partner max 10 µM), the results for the “combination Emax” value in assay [1] and in assay [2] were 0.258 and 0.112, respectively.
